# Data published in US20250066316A1, “CRYSTALLINE FORMS OF A COMPOUND FOR TREATING OR PREVENTING GOUT OR HYPERURICEMIA” (Arthrosi Therapeutics, Inc., priority 2021, published 2025).
# Assays:
# [1] = Solubility of test articles in HBSS assay buffer; settings: all tested concentrations; highest tested concentration 10 μM
# Procedure: Before the experiment, the medium was removed and the cells were washed twice with 100 μL of HBSS without Cl^−. Uptake experiments were carried out at 37±1° C. in 50 μL of HBSS without Cl^−, pH 7.4 containing the probe substrate (20 μM uric acid) and the test article (TA) or solvent.
# [2] = target: T1, human URAT1 uptake transporter (Homo sapiens, UniProt Q96S37); test: In vitro interaction with the human URAT1 uptake transporter (uric acid uptake in MDCKII cells); format: cell-based; settings: for inhibition at 10 µM: MDCK-II, read-out: inhibition of URAT1 mediated uric acid accumulation
# T1 construct: expressed in transfected cells
# T1 sequence (Q96S37 1-553): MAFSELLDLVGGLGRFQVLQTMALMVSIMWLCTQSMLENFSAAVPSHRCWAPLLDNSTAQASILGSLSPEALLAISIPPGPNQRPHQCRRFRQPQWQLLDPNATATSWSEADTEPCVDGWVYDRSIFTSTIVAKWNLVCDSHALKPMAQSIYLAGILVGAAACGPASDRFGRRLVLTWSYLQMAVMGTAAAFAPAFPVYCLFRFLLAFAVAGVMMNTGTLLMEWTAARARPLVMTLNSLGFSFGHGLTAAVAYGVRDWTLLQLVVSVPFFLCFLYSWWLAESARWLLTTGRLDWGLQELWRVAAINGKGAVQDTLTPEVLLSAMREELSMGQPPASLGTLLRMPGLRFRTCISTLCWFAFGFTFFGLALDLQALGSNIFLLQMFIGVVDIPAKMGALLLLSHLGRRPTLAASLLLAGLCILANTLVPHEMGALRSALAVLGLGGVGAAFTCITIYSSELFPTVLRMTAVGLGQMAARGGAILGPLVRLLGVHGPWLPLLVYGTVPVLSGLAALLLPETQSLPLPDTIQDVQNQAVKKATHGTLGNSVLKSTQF
# Procedure: Uptake experiments were performed using MDCKII cells stably expressing the human URAT1 uptake transporter. Cells were cultured at 37±1° C. in an atmosphere of 95:5 air:CO2 and were plated onto standard 96-well tissue culture plates at the cell number described in Table 1.
# Radiolabelled probe substrate transport was determined by measuring an aliquot (35 μL) from each well for liquid scintillation counting.
# [3] = cited from earlier work
# CYP2C9 = CYP2C9 (Homo sapiens, UniProt P11712); test: CYP2C9 metabolic pathway / metabolite formation; format: in vitro ADME
# Sequence of CYP2C9 (P11712 whole entry): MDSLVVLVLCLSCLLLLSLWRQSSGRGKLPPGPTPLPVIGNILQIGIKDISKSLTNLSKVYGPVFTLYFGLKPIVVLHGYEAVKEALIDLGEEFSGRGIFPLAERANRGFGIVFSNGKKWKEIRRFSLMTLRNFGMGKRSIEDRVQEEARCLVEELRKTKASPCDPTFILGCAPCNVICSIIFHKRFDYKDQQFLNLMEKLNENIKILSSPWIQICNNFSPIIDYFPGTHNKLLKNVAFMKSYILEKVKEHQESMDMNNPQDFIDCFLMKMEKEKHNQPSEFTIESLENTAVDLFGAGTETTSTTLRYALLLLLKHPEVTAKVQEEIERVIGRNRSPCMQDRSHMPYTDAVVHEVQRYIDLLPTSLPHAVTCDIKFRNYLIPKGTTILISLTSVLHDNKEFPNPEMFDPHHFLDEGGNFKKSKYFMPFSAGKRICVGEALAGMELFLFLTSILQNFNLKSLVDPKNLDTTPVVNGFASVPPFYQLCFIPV
# [4] = Stability in human microsomes; format: in vitro ADME; settings: comparison with benzbromarone
SMILES,solubility in HBSS buffer [1],inhibition at 10 µM [2] [%],"serum uric acid (sUA) level reached ([3]; chronic therapy, target levels) [mg/dL]",hepatotoxicity ([3]; in certain patients),CYP2C9 metabolic pathway of the compound (CYP2C9),"formation of 6-OH benzbromarone and 5,6-di-OH benzbromarone metabolites (CYP2C9)",stability in human microsomes [4],in vitro URAT1 potency compared to benzbromarone ([2]; comparison with benzbromarone)
"CCc1oc2ccccc2c1C(=O)c1cc(Br)c(O)c(Br)c1 [Benzbromarone, reference compound]",soluble,98,< 6,associated with hepatotoxicity,–,–,–,–
"[2H]c1c([2H])c([2H])c2c(C(=O)c3cc(Br)c(O)c(Br)c3)c(C(C)O)oc2c1[2H] (stereo not shown) [Compound 1, (3,5-dibromo-4-hydroxyphenyl) (2-(1-hydroxyethyl)benzofuran-3-yl-4,5,6,7-d4) methanone]",soluble,100,–,–,significantly reduced,not formed,more stable than benzbromarone,better
